The values below come from publication PMC3024946, “Hydroxyproline-containing collagen analogs trigger the release and activation of collagen-sequestered proMMP-2 by competition with prodomain-derived peptide P33-42” (Fibrogenesis & Tissue Repair, 2011).

The subject of one data set is ActMMP-2. Briefly: Solid-phase binding of [125I]-actMMP-2 to immobilized collagens/peptides (microwells). More on the design: species or system human. Particulars: for Binding of [125I]-MMPs: ActMMP-2, 2 ng/well, coated wells, 4°C, 2 h, residual radioactivity, mean ± SD, at least five experiments in triplicate. As for the experimental part:
(§1) Human recombinant proMMPs and in vitro activated MMPs were obtained from Invitek and were labeled with the [^125I]-Bolton-Hunter reagent according to the manufacturer's instructions (PerkinElmer, Rodgau, Germany) before the buffer was exchanged for phosphate-buffered saline (PBS) with 0.05% (vol/vol) Tween 20 by gel filtration as described previously. Specific radioactivity for [^125I]-MMPs was 3-9 × 10^4 cpm/ng. Precipitation with 10% (wt/vol) trichloroacetic acid and 200 μg of BSA recovered 96% to 100% of protein-bound radioactivity. Aliquots of labeled MMPs were frozen and stored at -80°C. The activity and integrity were checked by substrate gel zymography using SDS-PAGE and autoradiography with overnight exposure to Biomax MS film (Kodak, Stuttgart, Germany) (Figure 2A).
(§2) Native human CI, CIII and CVI were purified from skin tissue and placenta. The CI single chains α1(I) and α2(I) were obtained and modified as described previously. To prepare defined fragments, 2 mg of α1(I) were dissolved in 1 ml of 70% (vol/vol) formic acid at room temperature, the tubes were flushed with nitrogen for 10 min, and then 2 mg of CB were added. After incubation for 4 h at 37°C, free CB was neutralized and the samples were lyophilized. The peptides CB3, CB6, CB7 and CB8 were separated from the reaction mixture by gel filtration followed by ion-exchange chromatography. The resulting peptides were characterized by amino acid analysis and SDS-PAGE [45, 46]. The CB peptides had the following melting temperatures: CB3, 23.9°C; CB6, 26.7°C; CB7, 28.1°C; and CB8, 28.0°C [31].
(§3) The following collagen analogs and control peptides were synthesized as described previously: (GPO)10, H-Gly-Cys-Hyp-(Gly-Pro-Hyp)10-Gly-Cys-Hyp-Gly-NH2; (GPP)10, H-Gly-Cys-Pro-(Gly-Pro-Pro)10-Gly-Cys-Pro-Gly-NH2; and GAP, H-Gly-Ala-Cys-(Gly-Ala-Pro)5-Gly-Phe-Hyp-Gly-Glu-Arg-(Gly-Ala-Pro)5-NH2. Peptides (POG)10, (PPG)10 and (POG)5 were purchased from Peptide International (Louisville, KY, USA). Spontaneous triple-helix assembly was approved by polarimetry over a 10-cm path length at 1°C/min in 10 mM phosphate buffer, pH 7.4. At 5 mg/ml, midpoints of melting curves occurred at 82.3 ± 1.4°C for (GPO)10 and at 45.8 ± 0.8°C for (GPP)10. […] Graphs were calculated from the primary data using a custom fitting program written by D.A. Slatter (Department of Biochemistry, University of Cambridge, Cambridge, UK [48]) to model different possible transitions. All collagens, CI derivatives and peptides were stored in stock solutions of 2 mg/ml in 150 mM acetic acid at -20°C.
(§4) ProMMP-2 and proMMP-9 or actMMP-2 and actMMP-9 were bound to nitrocellulose and polystyrene-immobilized native collagens, CI chains, CB peptides or structural analogs. Serial dilutions of collagens or CI derivatives in 150 mM acetic acid were dotted at 3 × 3 μl to a nitrocellulose membrane with high protein-binding capacity (GE Healthcare, Munich, Germany). Air-dried membranes were blocked with PBS and 0.3% (vol/vol) Tween 20 overnight at 4°C, washed three times, and incubated with 1 ng/ml [^125I]-pro- and actMMP-2 and pro- and actMMP-9 in PBS and 0.3% (vol/vol) Tween 20 for 2 h at room temperature. Membranes were washed again and air-dried, and bound MMP was monitored by autoradiography. In parallel, polystyrene microtiter plates (Dynex, Chantilly, VA, USA) were coated with collagen proteins and peptides. Here 2 μg/well or 200 ng/well proteins and peptides or BSA as control were immobilized in 100 μl of 50 mM ammonium bicarbonate buffer, pH 9.6, by overnight incubation at 4°C. Immobilization efficacies were 20% to 45% of total proteins. Wells were washed three times with PBS, and nonspecific binding sites were blocked with PBS and 0.05% (vol/vol) Tween 20 for 1 h at room temperature. All incubation steps were performed with 2 ng of [^125I]-MMPs at 4°C for 2 h. […]

The next data set has as its system ActMMP-9. The data set is described as follows: Solid-phase binding of [125I]-actMMP-9 to immobilized collagens/peptides (microwells). More on the design: species or system human. Particulars: ActMMP-9, 2 ng/well; coated wells; 4°C, 2 h; residual radioactivity; mean ± SD, at least five experiments in triplicate. As for the experimental part: as §1, §2, §3, §4

Another data set deals with ProMMP-2. The data set is described as follows: Solid-phase binding of [125I]-proMMP-2 to immobilized collagens/peptides (microwells). Also on record: species or system human. Particulars: for Binding of [125I]-MMPs: ProMMP-2, 2 ng/well, coated wells, 4°C, 2 h, residual radioactivity, mean ± SD, at least five experiments in triplicate. As for the experimental part:
as §1, §2, §3, §4

A further data set deals with ProMMP-9. The data set is described as follows: Solid-phase binding of [125I]-proMMP-9 to immobilized collagens/peptides (microwells). More on the design: species or system human. To be noted: ProMMP-9, 2 ng/well; coated wells; 4°C, 2 h; residual radioactivity; mean ± SD, at least five experiments in triplicate. As for the experimental part: as §1, §2, §3, §4
In data set [1] the test system is gelatinase activity in rat cirrhotic liver. Briefly: In situ zymography of cirrhotic liver, negative controls. The format is biochemical. Particulars: 10 mM ethylenediaminetetraacetic acid or 1 mM phenanthroline; DQ-gelatine. The method, then:
As described earlier, in situ zymography was performed with cryostat sections (6 μm) of rat cirrhotic liver. In brief, sections were dried, overlayed with 100 μg/ml DQ-gelatine (λex/em, 495/515 nm; Molecular Probes, Eugene, OR, USA) and 0.5% (wt/vol) low-melt agarose in MMP activity buffer. […] Samples were inserted into coverslips and incubated at 40°C for 1 h before being transferred to room temperature for an additional 2 to 16 h. Hoechst 33342 (Invitrogen, Carlsbad, California, USA) nuclear dye was used for counterstaining. Images were obtained by fluorescence microscopy using a Nikon E800 photodocumentation microscope (Nikon Imaging, Düsseldorf, Germany).

The subject of another data set is MMPs / CI. Briefly: SPR, effect of control peptide on interaction of the MMPs with CI. In kind it is binding, human. To be noted: linear control peptide, not shown. The method, then: Sensor chip preparations and SPR measurements were performed using a BiacoreX device and the Bia-evaluation software (version 3.2; Biacore, Uppsala, Sweden). The pepsin-resistant triple-helical part of human fibrillar CI (100 μg/ml) in 10 mM acetate coupling buffer, pH 4.8, was immobilized to a dextran matrix-sensor chip at a flow rate of 5 μl/min, resulting in 5,500 resonance units from CI covalently linked via its primary amino groups. The control flow cell was prepared using the coupling buffer without CI. Surfaces were activated and blocked as described previously. […] The effects of (GPO)10, GAP, (POG)5, (GPP)10 and P33-42 on MMP-2 and MMP-9 binding to CI and their enzymatic activity were determined by adding the binding competitors to the (pro- and act)MMP-2 and MMP-9 solution in 10- to 150-fold molar excesses. Effects independent of MMP-2 and MMP-9 activity were monitored in the presence of Ro 28-2653 (1 μM) during SPR analysis. […] Kinetic parameters were analyzed using the 1:1 binding model with drifting baseline and subtraction of the control flow cell binding from sensorgrams obtained with immobilized CI. Binding constants (Kd) were calculated from the association (ka) and dissociation rates (kd) obtained from individual binding curves at different concentrations. […]
Background: Surface plasmon resonance follows binding to a sensor surface in real time, without labels.

In another data set the target is T1, proMMP-2 / CI (Homo sapiens, UniProt P08253).
T1 construct: prodomain-containing proMMP-2 or proMMP-9; purchased Invitek
T1 sequence (P08253 30-660 limits assumed): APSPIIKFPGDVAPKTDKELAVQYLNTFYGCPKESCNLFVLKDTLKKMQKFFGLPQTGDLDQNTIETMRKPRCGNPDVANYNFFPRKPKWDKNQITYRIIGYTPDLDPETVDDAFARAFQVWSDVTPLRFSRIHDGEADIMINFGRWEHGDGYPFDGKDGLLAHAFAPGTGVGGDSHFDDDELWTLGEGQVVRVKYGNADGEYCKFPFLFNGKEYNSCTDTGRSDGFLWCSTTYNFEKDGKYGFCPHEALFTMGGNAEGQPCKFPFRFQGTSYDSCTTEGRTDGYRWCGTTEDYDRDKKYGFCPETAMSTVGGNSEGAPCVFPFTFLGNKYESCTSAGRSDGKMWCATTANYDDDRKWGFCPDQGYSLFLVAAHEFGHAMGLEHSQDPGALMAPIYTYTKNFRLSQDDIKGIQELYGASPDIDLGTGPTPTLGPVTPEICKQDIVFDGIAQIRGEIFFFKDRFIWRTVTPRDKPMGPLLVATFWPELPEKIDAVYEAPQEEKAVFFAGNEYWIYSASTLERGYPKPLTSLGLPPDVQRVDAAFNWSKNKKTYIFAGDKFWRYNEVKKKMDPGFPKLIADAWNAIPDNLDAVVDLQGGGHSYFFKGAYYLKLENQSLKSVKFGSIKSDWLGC
The data set is described as follows: SPR, competition of proMMP-2 binding to CI, MMP activity buffer with Ro 28-2653. To be noted: SPR; MMP activity buffer with Ro 28-2653. As for the experimental part: Sensor chip preparations and SPR measurements were performed using a BiacoreX device and the Bia-evaluation software (version 3.2; Biacore, Uppsala, Sweden). The pepsin-resistant triple-helical part of human fibrillar CI (100 μg/ml) in 10 mM acetate coupling buffer, pH 4.8, was immobilized to a dextran matrix-sensor chip at a flow rate of 5 μl/min, resulting in 5,500 resonance units from CI covalently linked via its primary amino groups. The control flow cell was prepared using the coupling buffer without CI. Surfaces were activated and blocked as described previously. Immediately after thawing, pro- and actMMP-2 and pro- and actMMP-9 were diluted to 100 to 250 nM in MMP activity buffer or in PBS and 0.05% (vol/vol) Tween 20. For SPR measurements, flow rates were 10 μl/min at 25°C, and equilibrium was typically reached after 30 to 60 s. The effects of (GPO)10, GAP, (POG)5, (GPP)10 and P33-42 on MMP-2 and MMP-9 binding to CI and their enzymatic activity were determined by adding the binding competitors to the (pro- and act)MMP-2 and MMP-9 solution in 10- to 150-fold molar excesses. Effects independent of MMP-2 and MMP-9 activity were monitored in the presence of Ro 28-2653 (1 μM) during SPR analysis. The gelatinase inhibitor Ro 28-2653 was a generous gift from H.-W. Krell (Roche, Grenzach-Wyhlen, Germany). Sensor surfaces were regenerated with 10 mM glycine, pH 2.3, for 1 min between runs, and sensor chips were used up to 25 times. Kinetic parameters were analyzed using the 1:1 binding model with drifting baseline and subtraction of the control flow cell binding from sensorgrams obtained with immobilized CI. Binding constants (Kd) were calculated from the association (ka) and dissociation rates (kd) obtained from individual binding curves at different concentrations. Individual drifts of the resonance signal were fitted locally, and χ^2 values of 0.2% to 1.0% of the maximum resonance value were considered good fits.

Data set [2] in a line: Triple-helix melting temperature. In kind it is physicochemical. Particulars: at 5°C; polarimetry. As for the experimental part: as §2, §3

Regarding α1(I): α1 chain of collagen type I, the “Binding of [125I]-MMPs” value is on record as 19.0 ± 3.0 % of maximum control with ActMMP-2, 4.7 ± 0.3 % of maximum control in the data set with ActMMP-9, 36.0 ± 4.0 % of maximum control in the data set with ProMMP-2 and 37.6 ± 0.9 % of maximum control in the data set with ProMMP-9. The maximum binding in the data set with ActMMP-2 (actMMP-2, text) was determined as 19%.

Take `c1cnc2c(c1)ccc1cccnc12` [phenanthroline]: in data set [1], the gelatinase activity result is on record as “no generation of bright green fluorescence was observed”.

For the compound α2(I): CI single chain α2(I), the “Binding of [125I]-MMPs” value with ActMMP-2 was 10.7 ± 1.8 % of maximum control; in the data set with ActMMP-9, 2.6 ± 0.2 % of maximum control; with ProMMP-2 it was 30.2 ± 2.3 % of maximum control; in the data set with ProMMP-9, 21.8 ± 1.1 % of maximum control.

With CVI: native human collagen type VI, the “Binding of [125I]-MMPs” value with ActMMP-2 is reported as 4.8 ± 0.6 % of maximum control; in the data set on ActMMP-9, 2.4 ± 0.1 % of maximum control; with ProMMP-2, 14.1 ± 1.8 % of maximum control; in the data set on ProMMP-9, 12.3 ± 0.8 % of maximum control.

As to “H-Gly-Ala-Cys-(Gly-Ala-Pro)5-Gly-Phe-Hyp-Gly-Glu-Arg-(Gly-Ala-Pro)5-NH2 [GAP, linear Gly-Ala-Pro (GAP) control peptide]”, the “Binding of [125I]-MMPs” value is on record as 1.5 ± 0.7 % of maximum control in the data set on ActMMP-2, 0.7 ± 0.2 % of maximum control in the data set on ActMMP-9, 1.7 ± 1.0 % of maximum control in the data set with ProMMP-2 and 1.3 ± 0.2 % of maximum control in the data set on ProMMP-9. Moreover, in the data set with ProMMP-2 (pro- and act-forms of MMP-2 and MMP-9, in words), the “interaction with control peptides” value was “only marginal interactions”. The “effect on interaction of the MMPs with CI” value in the data set with MMPs / CI is recorded as “no effect”. At proMMP-2 / CI, the “competition with proMMP-2 binding to CI” value is given as “less efficient”. Besides, in data set [2], the helicity result was “nonhelical even at 5 °C”.

Regarding `O=C(O)CN(CCN(CC(=O)O)CC(=O)O)CC(=O)O` [ethylenediaminetetraacetic acid], in data set [1], the gelatinase activity result was “no generation of bright green fluorescence was observed”.
